What was measured:
[1] = tested on: Echinochloa oryzoides (Ard.) Fritsch.; test: Preemergence weed control under flooded paddy conditions, ECHORC (Watergrass (Calif.)); assay type: in vivo; conditions: flooded paddy; on herbicidal effect rating, ECHORC: meaning of each grade not given here
Cyperus iria = test: Preemergence weed control under flooded paddy conditions, CYPIR (Rice Flatsedge); assay type: in vivo; conditions: flooded paddy; on herbicidal effect rating, CYPIR: meaning of each grade not given here
[2] = tested on: Cyperus serotinus, Rottb.; test: Preemergence weed control under flooded paddy conditions, CYPSE (Flatsedge); assay type: in vivo; on herbicidal effect rating, CYPSE: meaning of each grade not given here
[3] = tested on: Monochoria vaginalis, Presl.; test: Preemergence weed control under flooded paddy conditions, MOOVA (Monochoria); assay type: in vivo; conditions: flooded paddy; on herbicidal effect rating, MOOVA: meaning of each grade not given here
Sagittaria pygmaea, L. = test: Preemergence weed control under flooded paddy conditions, SAGPY (Arrowhead (Pygmaea)); assay type: in vivo; conditions: flooded paddy; on herbicidal effect rating, SAGPY: meaning of each grade not given here
[4] = tested on: Oryza sativa, (L.) Tebonnet; test: Rice tolerance to post-transplant applications under flooded paddy conditions (Example 187), ORYSAT (Rice, Tebonnet); on herbicidal effect rating ORYSAT: meaning of each grade not given here
[5] = Rate 0.0320 kg/ha, preemergence, rated 3-4 weeks after treatment
[6] = Rate 0.0620 kg/ha, preemergence, rated 3-4 weeks after treatment
[7] = Rate 0.1250 kg/ha, preemergence, rated 3-4 weeks after treatment
[8] = Rate 0.2500 kg/ha, preemergence, rated 3-4 weeks after treatment
[9] = Rate 0.5000 kg/ha, preemergence, rated 3-4 weeks after treatment
[10] = 0.0320 kg/ha, preemergence, rated three to four weeks after treatment
[11] = 0.0620 kg/ha, preemergence, rated three to four weeks after treatment
[12] = 0.1250 kg/ha, preemergence, rated three to four weeks after treatment
[13] = 0.2500 kg/ha, preemergence, rated three to four weeks after treatment
[14] = 0.1250 kg/ha, rated three to four weeks after treatment
[15] = 0.2500 kg/ha, rated three to four weeks after treatment
[16] = 0.0313 kg/ha, preemergence weeds, rated three to four weeks after treatment
[17] = 0.0625 kg/ha, preemergence weeds, rated three to four weeks after treatment
[18] = 0.1250 kg/ha, preemergence weeds, rated three to four weeks after treatment
[19] = 0.2500 kg/ha, preemergence weeds, rated three to four weeks after treatment
[20] = 0.0313 kg/ha, rated three to four weeks after treatment
[21] = 0.0625 kg/ha, rated three to four weeks after treatment
[22] = Rate 0.0320 kg/ha, preemergence, rated three to four weeks after treatment
[23] = Rate 0.0620 kg/ha, preemergence, rated three to four weeks after treatment
[24] = Rate 0.1250 kg/ha, preemergence, rated three to four weeks after treatment
[25] = Rate 0.2500 kg/ha, preemergence, rated three to four weeks after treatment
[26] = 0.0313 kg/ha, preemergence, rated three to four weeks after treatment
[27] = 0.0625 kg/ha, preemergence, rated three to four weeks after treatment

C=CS(=O)(=O)NC(=O)COc1ccc(C)cc1-c1nsc2ccc(-n3c(=O)cc(C(F)(F)F)n(C)c3=O)cc12 [Example 553, Acetamide, 2-{{2-{5-[3,6-dihydro-3-methyl-2,6-dioxo-4-(trifluoromethyl)-1(2H)-pyrimidinyl]-1,2-benzisothiazol-3-yl}-p-tolyl}oxy}-N-(vinylsulfonyl)-]
herbicidal effect rating, ECHORC [1, 5]: 1.3
herbicidal effect rating, ECHORC [1, 6]: 2.1
herbicidal effect rating, ECHORC [1, 7]: 6.4
herbicidal effect rating, ECHORC [1, 8]: 9.0
herbicidal effect rating, ECHORC [1, 9]: 7.0
herbicidal effect rating, CYPIR (Cyperus iria; [5]): 2.0
herbicidal effect rating, CYPIR (Cyperus iria; [6]): 6.0
herbicidal effect rating, CYPIR (Cyperus iria; [7]): 7.0
herbicidal effect rating, CYPIR (Cyperus iria; [8]): 9.0
herbicidal effect rating, CYPIR (Cyperus iria; [9]): 4.0
herbicidal effect rating, CYPSE [2, 5]: 0.0
herbicidal effect rating, CYPSE [2, 6]: 0.0
herbicidal effect rating, CYPSE [2, 8]: 2.0
herbicidal effect rating, CYPSE [2, 9]: 9.0
herbicidal effect rating, MOOVA [3, 5]: 7.0
herbicidal effect rating, MOOVA [3, 6]: 9.0
herbicidal effect rating, MOOVA [3, 7]: 9.0
herbicidal effect rating, MOOVA [3, 8]: 9.0
herbicidal effect rating, MOOVA [3, 9]: 9.0
herbicidal effect rating, SAGPY (Sagittaria pygmaea, L.; [5]): 0.0
herbicidal effect rating, SAGPY (Sagittaria pygmaea, L.; [6]): 0.0
herbicidal effect rating, SAGPY (Sagittaria pygmaea, L.; [7]): 0.0
herbicidal effect rating, SAGPY (Sagittaria pygmaea, L.; [8]): 0.0
herbicidal effect rating, SAGPY (Sagittaria pygmaea, L.; [9]): 0.0
herbicidal effect rating ORYSAT ([4]; Rate 0.0320 kg/ha, rated 3-4 weeks after treatment): 3.0
herbicidal effect rating ORYSAT ([4]; Rate 0.0620 kg/ha, rated 3-4 weeks after treatment): 4.0
herbicidal effect rating ORYSAT ([4]; Rate 0.1250 kg/ha, rated 3-4 weeks after treatment): 4.0
herbicidal effect rating ORYSAT ([4]; Rate 0.2500 kg/ha, rated 3-4 weeks after treatment): 6.0
herbicidal effect rating ORYSAT ([4]; Rate 0.5000 kg/ha, rated 3-4 weeks after treatment): 4.0

CN(C(=O)c1nsc2ccc(-n3c(=O)cc(C(F)(F)F)n(C)c3=O)cc12)S(=O)(=O)Cc1ccccc1 [Example 494, 1,2-Benzisothiazole-3-carboxamide, N-(benzylsulfonyl)-5-[3,6-dihydro-3-methyl-2,6-dioxo-4-(trifluoromethyl)-1(2H)-pyrimidinyl]-N-methyl-]
ECHORC herbicidal rating [1, 10]: 0.0
ECHORC herbicidal rating [1, 11]: 2.0
ECHORC herbicidal rating [1, 12]: 3.0
ECHORC herbicidal rating [1, 13]: 3.0
CYPIR herbicidal rating (Cyperus iria; [10]): 3.0
CYPIR herbicidal rating (Cyperus iria; [11]): 4.0
CYPIR herbicidal rating (Cyperus iria; [12]): 5.0
CYPIR herbicidal rating (Cyperus iria; [13]): 5.0
CYPSE herbicidal rating [2, 12]: 0.0
CYPSE herbicidal rating [2, 13]: 3.0
MOOVA herbicidal rating [3, 10]: 4.0
MOOVA herbicidal rating [3, 11]: 4.0
MOOVA herbicidal rating [3, 12]: 5.0
MOOVA herbicidal rating [3, 13]: 6.0
SAGPY herbicidal rating (Sagittaria pygmaea, L.; [10]): 0.0
SAGPY herbicidal rating (Sagittaria pygmaea, L.; [11]): 0.0
SAGPY herbicidal rating (Sagittaria pygmaea, L.; [12]): 0.0
SAGPY herbicidal rating (Sagittaria pygmaea, L.; [13]): 3.0
ORYSAT herbicidal rating (rice tolerance) ([4]; 0.0320 kg/ha, rated three to four weeks after treatment): 0.0
ORYSAT herbicidal rating (rice tolerance) ([4]; 0.0620 kg/ha, rated three to four weeks after treatment): 0.0
ORYSAT herbicidal rating (rice tolerance) [4, 14]: 0.0
ORYSAT herbicidal rating (rice tolerance) [4, 15]: 0.0

Cc1ccc(OC2CC(C)OC2=O)c(-c2nsc3ccc(-n4c(=O)cc(C(F)(F)F)n(C)c4=O)cc23)c1 (racemic) [Example 189, 1-Methyl-3-{3-{6-[(tetrahydro-5-methyl-2-oxo-3-furyl)oxy]-m-tolyl}-1,2-benzisothiazol-5-yl}-6-(trifluoromethyl)-2,4(1H,3H)-pyrimidinedione, DL-]
herbicidal effect rating, ECHORC [1, 16]: 0.0
herbicidal effect rating, ECHORC [1, 17]: 0.0
herbicidal effect rating, ECHORC [1, 18]: 0.0
herbicidal effect rating, ECHORC [1, 19]: 0.0
herbicidal effect rating, CYPIR (Cyperus iria; [16]): 0.0
herbicidal effect rating, CYPIR (Cyperus iria; [17]): 0.0
herbicidal effect rating, CYPIR (Cyperus iria; [18]): 0.0
herbicidal effect rating, CYPIR (Cyperus iria; [19]): 0.0
herbicidal effect rating, CYPSE [2, 16]: 0.0
herbicidal effect rating, CYPSE [2, 17]: 0.0
herbicidal effect rating, CYPSE [2, 18]: 0.0
herbicidal effect rating, CYPSE [2, 19]: 0.0
herbicidal effect rating, MOOVA [3, 16]: 0.0
herbicidal effect rating, MOOVA [3, 17]: 0.0
herbicidal effect rating, MOOVA [3, 18]: 2.0
herbicidal effect rating, MOOVA [3, 19]: 8.0
herbicidal effect rating, SAGPY (Sagittaria pygmaea, L.; [16]): 0.0
herbicidal effect rating, SAGPY (Sagittaria pygmaea, L.; [17]): 0.0
herbicidal effect rating, SAGPY (Sagittaria pygmaea, L.; [18]): 0.0
herbicidal effect rating, SAGPY (Sagittaria pygmaea, L.; [19]): 0.0
herbicidal effect rating, ORYSAT (rice tolerance) [4, 20]: 0.0
herbicidal effect rating, ORYSAT (rice tolerance) [4, 21]: 0.0
herbicidal effect rating, ORYSAT (rice tolerance) [4, 14]: 0.0
herbicidal effect rating, ORYSAT (rice tolerance) [4, 15]: 0.0

Cc1ccc(S(=O)(=O)NC(=O)c2nsc3ccc(-n4c(=O)cc(C(F)(F)F)n(C)c4=O)cc23)cc1 [Example 353, 1,2-Benzisothiazole-3-carboxamide, 5-[3,6-dihydro-3-methyl-2,6-dioxo-4-(trifluoromethyl)-1(2H)-pyrimidinyl]-N-(p-tolylsulfonyl)-]
herbicidal effect rating, ECHORC [1, 22]: 0.0
herbicidal effect rating, ECHORC [1, 23]: 2.0
herbicidal effect rating, ECHORC [1, 24]: 2.5
herbicidal effect rating, ECHORC [1, 25]: 3.0
herbicidal effect rating, CYPIR (Cyperus iria; [22]): 0.0
herbicidal effect rating, CYPIR (Cyperus iria; [23]): 0.0
herbicidal effect rating, CYPIR (Cyperus iria; [24]): 1.0
herbicidal effect rating, CYPIR (Cyperus iria; [25]): 3.0
herbicidal effect rating, CYPSE [2, 22]: 0.0
herbicidal effect rating, CYPSE [2, 23]: 0.0
herbicidal effect rating, CYPSE [2, 24]: 1.5
herbicidal effect rating, CYPSE [2, 25]: 2.5
herbicidal effect rating, MOOVA [3, 22]: 3.5
herbicidal effect rating, MOOVA [3, 23]: 6.5
herbicidal effect rating, MOOVA [3, 24]: 8.0
herbicidal effect rating, MOOVA [3, 25]: 8.0
herbicidal effect rating, SAGPY (Sagittaria pygmaea, L.; [22]): 0.0
herbicidal effect rating, SAGPY (Sagittaria pygmaea, L.; [23]): 0.0
herbicidal effect rating, SAGPY (Sagittaria pygmaea, L.; [24]): 0.0
herbicidal effect rating, SAGPY (Sagittaria pygmaea, L.; [25]): 0.0
herbicidal effect rating ORYSAT ([4]; Rate 0.0320 kg/ha, rated three to four weeks after treatment): 2.5
herbicidal effect rating ORYSAT ([4]; Rate 0.0620 kg/ha, rated three to four weeks after treatment): 3.0
herbicidal effect rating ORYSAT ([4]; Rate 0.1250 kg/ha, rated three to four weeks after treatment): 3.5
herbicidal effect rating ORYSAT ([4]; Rate 0.2500 kg/ha, rated three to four weeks after treatment): 4.0

COCc1nsc2ccc(-n3c(=O)cc(C(F)(F)F)n(C)c3=O)cc12 [Example 31, 3-[3-(Methoxymethyl)-1,2-benzisothiazol-5-yl]-1-methyl-6-(trifluoromethyl)-2,4(1H,3H)-pyrimidinedione]
herbicidal effect rating, ECHORC [1, 26]: 7.0
herbicidal effect rating, ECHORC [1, 27]: 8.5
herbicidal effect rating, ECHORC [1, 12]: 9.0
herbicidal effect rating, ECHORC [1, 13]: 9.0
herbicidal effect rating, CYPIR (Cyperus iria; [26]): 9.0
herbicidal effect rating, CYPIR (Cyperus iria; [27]): 9.0
herbicidal effect rating, CYPIR (Cyperus iria; [12]): 9.0
herbicidal effect rating, CYPIR (Cyperus iria; [13]): 9.0
herbicidal effect rating, CYPSE [2, 26]: 7.0
herbicidal effect rating, CYPSE [2, 27]: 7.0
herbicidal effect rating, CYPSE [2, 12]: 8.0
herbicidal effect rating, CYPSE [2, 13]: 9.0
herbicidal effect rating, MOOVA [3, 26]: 9.0
herbicidal effect rating, MOOVA [3, 27]: 9.0
herbicidal effect rating, MOOVA [3, 12]: 9.0
herbicidal effect rating, MOOVA [3, 13]: 9.0
herbicidal effect rating, SAGPY (Sagittaria pygmaea, L.; [26]): 4.0
herbicidal effect rating, SAGPY (Sagittaria pygmaea, L.; [27]): 7.0
herbicidal effect rating, SAGPY (Sagittaria pygmaea, L.; [12]): 9.0
herbicidal effect rating, SAGPY (Sagittaria pygmaea, L.; [13]): 9.0
herbicidal effect rating, ORYSAT (rice tolerance) [4, 20]: 7.5
herbicidal effect rating, ORYSAT (rice tolerance) [4, 21]: 8.0
herbicidal effect rating, ORYSAT (rice tolerance) [4, 14]: 7.5
herbicidal effect rating, ORYSAT (rice tolerance) [4, 15]: 8.0

Reference: patent EP0908457B1, “3-(1,2-benzisothiazol- and isoxazol-5-Y1)-2,4(1H,3H)-pyrimidinedione or thione and 3-(1,2-benzisothiazol- and isoxazol-5-y1)-4(3H)-pyrimidinone or thione herbicidal agents” (BASF AKTIENGESELLSCHAFT, priority 1997, dated 1999)
